Test systems include SK-OV-3 ovarian; SK-MEL-28 melanoma; OVCAR-4 ovarian; UACC-257 melanoma; CCRF-CEM leukemia; SF-268 CNS; UO-31 renal; HT29 colon; K-562 leukemia; HCT-15 colon.
Holding throughout (assay): NCI anticancer screen, dose series, 48 h

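Method: 48-hour compound exposure of cells in 96-well plates, five concentrations, linear interpolation of endpoints. Here, GI50 denotes the concentration required for 50% inhibition of growth. At the TGI there is no net growth.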

With `CC(C)Cc1cccc(C(C)C)c1NC(=O)CCC(=O)N/N=C1\C(=N/NC(=O)CCC(=O)Nc2c(C(C)C)cccc2C(C)C)C(c2ccc3c(c2)OCO3)Oc2ccccc21` (stereo not given), the TGI with SK-OV-3 ovarian, with SK-MEL-28 melanoma, with OVCAR-4 ovarian, in the assay with UACC-257 melanoma, in the assay on CCRF-CEM leukemia and in the assay with SF-268 CNS was above 100 µM in each case. Moreover, the TGI with UO-31 renal, in the assay on HT29 colon, in the assay on K-562 leukemia and in the assay with HCT-15 colon was above 100 µM in each case.

With `COc1ccc(-n2cc(-c3ccc(OC)c(OC)c3)nc2SCc2ccccc2)cc1Cl`, the GI50 in the assay with SK-OV-3 ovarian is 66.6 µM; in the assay on SK-MEL-28 melanoma it was 27.4 µM; in the assay with OVCAR-4 ovarian, 20.1 µM; with UACC-257 melanoma, 7.23 µM; with CCRF-CEM leukemia it was 0.857 µM; with SF-268 CNS, 30.4 µM. For the same compound, the GI50 was 15.2 µM in the assay on UO-31 renal, 17 µM in the assay on HT29 colon, 9.05 µM in the assay with K-562 leukemia and 20 µM with HCT-15 colon. Moreover, the TGI in the assay with SK-OV-3 ovarian was above 100 µM; in the assay with SK-MEL-28 melanoma, above 100 µM; in the assay with OVCAR-4 ovarian, above 100 µM; in the assay with UACC-257 melanoma it was 38.3 µM; in the assay with CCRF-CEM leukemia, 31.2 µM; in the assay on SF-268 CNS, above 100 µM. For the same compound, the TGI in the assay with UO-31 renal was above 100 µM; in the assay on HT29 colon it was above 100 µM; with K-562 leukemia it was 39.3 µM; in the assay on HCT-15 colon, above 100 µM.

As to `FC(F)(F)C1=NC(=NNc2nnc(-c3ccccc3)c(-c3ccccc3)n2)N=C(C(F)(F)F)C1`, the TGI with SK-OV-3 ovarian, in the assay on SK-MEL-28 melanoma, with OVCAR-4 ovarian, in the assay on UACC-257 melanoma, in the assay with CCRF-CEM leukemia and in the assay on SF-268 CNS was above 100 µM throughout. In addition, the TGI was 29.1 µM in the assay on UO-31 renal, above 100 µM with HT29 colon, above 100 µM in the assay with K-562 leukemia and above 100 µM with HCT-15 colon.

Turning to `C[C@H](O)C(=O)SC[C@H](NC(=O)CC[C@@H](N)C(=O)O)C(=O)NCC(=O)O`, the TGI in the assay with SK-OV-3 ovarian, in the assay with SK-MEL-28 melanoma, with OVCAR-4 ovarian, with UACC-257 melanoma, in the assay with CCRF-CEM leukemia and in the assay with SF-268 CNS was above 100 µM each time. Further, the TGI in the assay on UO-31 renal, in the assay with HT29 colon, in the assay on K-562 leukemia and in the assay on HCT-15 colon was above 100 µM in each case.

With `Oc1ccc2ccccc2c1Cc1c(O)ccc2ccccc12`, the TGI in the assay with SK-OV-3 ovarian is 35 µM; with SK-MEL-28 melanoma, 40.7 µM; with OVCAR-4 ovarian it was 30.6 µM; in the assay with UACC-257 melanoma it was 48.9 µM; in the assay on CCRF-CEM leukemia, 45.8 µM; with SF-268 CNS it was 31.1 µM. Further, the TGI in the assay on UO-31 renal was found to be 32.2 µM; with HT29 colon, 46.5 µM; in the assay with K-562 leukemia it was 32.8 µM; in the assay with HCT-15 colon, 32.7 µM.

Regarding `CCOc1cc(NC(C)=O)ccc1C(=O)NN1C(=O)CSC1c1ccc(O)c(OC)c1` (stereo not given), the TGI in the assay on SK-OV-3 ovarian, in the assay with SK-MEL-28 melanoma, with OVCAR-4 ovarian, in the assay on UACC-257 melanoma, in the assay with CCRF-CEM leukemia and in the assay on SF-268 CNS was above 100 µM throughout. For the same compound, the TGI in the assay with UO-31 renal was 29.5 µM; with HT29 colon it was above 100 µM; in the assay on K-562 leukemia, above 100 µM; in the assay on HCT-15 colon it was above 100 µM.

These data come from PubChem BioAssay (NCI).
